Results: patent publication US20230143612A1 (Arbutus Biopharma Corporation, priority 2020, published 2023)

These compounds were tested against PD-L1 His protein / PD-1 Fc protein (Homo sapiens, UniProt Q9NZQ7) (assay: HTRF Assay (PD-1/PD-L1 interaction)). Conditions: PD-L1 His 6 nM, PD-1 Fc 6 nM.
Sequence of PD-L1 His protein / PD-1 Fc protein (Q9NZQ7 19-238 limits assumed): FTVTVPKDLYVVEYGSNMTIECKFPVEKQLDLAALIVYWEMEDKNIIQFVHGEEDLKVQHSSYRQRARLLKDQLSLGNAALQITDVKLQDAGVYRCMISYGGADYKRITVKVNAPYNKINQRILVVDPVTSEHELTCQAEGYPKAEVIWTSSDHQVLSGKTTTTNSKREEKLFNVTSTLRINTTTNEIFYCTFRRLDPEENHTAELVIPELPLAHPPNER
Type: binding
Procedure, shortened: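 HTRF: PD-L1 His (6 nM final), compound (3-fold dilutions, 20 μM to 0.001 μM final) and PD-1 Fc (6 nM final) preincubated 15 min at room temperature. Anti-human IgG-XL665 and anti-6HIS Tb cryptate (mixed at 6.7 nM and 0.35 nM) then added for 1 h at room temperature before reading.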
COc1nc(-c2cccc(-c3cccc(-c4cc5c(=O)n(C)c(CN6CC(C)(C#N)C6)nn5c4)c3Cl)c2Cl)ccc1CNC[C@@H]1CCC(=O)N1 [Example 470, 1-[[6-[2-chloro-3-[2-chloro-3-[6-methoxy-5-[[[(2S)-5-oxopyrrolidin-2-yl]methylamino]methyl]-2-pyridyl]phenyl]phenyl]-3-methyl-4-oxo-pyrrolo[2,1-f][1,2,4]triazin-2-yl]methyl]-3-methyl-azetidine-3-carbonitrile] was tested, and the IC50 was 37 nM.
For Cc1c(COc2cc(OCc3cncc(C#N)c3)c(CNC[C@@H]3CCC(=O)N3)cc2Cl)cccc1-c1cccc(-c2ccc3c(c2)C(=O)N(C)CC(=O)N3CCNC[C@@H]2CCC(=O)N2)c1C [Example 20, 5-((4-Chloro-5-((2,2′-dimethyl-3′-(4-methyl-2,5-dioxo-1-(2-((((S)-5-oxopyrrolidin-2-yl)methyl)amino)ethyl)-2,3,4,5-tetrahydro-1H-benzo[e][1,4]diazepin-7-yl)-[1,1′-biphenyl]-3-yl)methoxy)-2-(((((S)-5-oxopyrrolidin-2-yl)methyl)amino)methyl)phenoxy)methyl)nicotinonitrile], the IC50 was 4.2 nM.
Compound COc1nc(-c2cccc(-c3cccc(-c4ccn5c(=O)c(CNC[C@@H](O)CC(N)=O)cnc5c4)c3Cl)c2Cl)cc(F)c1CNC[C@@H]1CCC(=O)N1 [Example 275, (3S)-4-[[8-[2-Chloro-3-[2-chloro-3-[4-fluoro-6-methoxy-5-[[[(2S)-5-oxopyrrolidin-2-yl]methylamino]methyl]-2-pyridyl]phenyl]phenyl]-4-oxo-pyrido[1,2-a]pyrimidin-3-yl]methylamino]-3-hydroxy-butanamide] has an IC50 of 0.1 nM.
COc1nc(-c2cccc(-c3cccc(-c4ccn5c(CNC[C@@H]6CCC(=O)N6)cnc5c4)c3Cl)c2Cl)ccc1CNC[C@@H]1CCC(=O)N1 [Example 380] was tested, and the IC50 was 24 nM.
CNC(=O)C[C@H](O)CNCc1cnc2cc(-c3cccc(-c4cccc(-c5ccc(CNC[C@@H]6CCC(=O)N6)c(OC)n5)c4Cl)c3Cl)ccn2c1=O [Example 292, (3S)-4-[[8-[2-Chloro-3-[2-chloro-3-[6-methoxy-5-[[[(2S)-5-oxopyrrolidin-2-yl]methylamino]methyl]-2-pyridyl]phenyl]phenyl]-4-oxo-pyrido[1,2-a]pyrimidin-3-yl]methylamino]-3-hydroxy-N-methyl-butanamide] gave an IC50 of 0.1 nM.
Compound Cc1c(COc2cc(OCc3cncc(C#N)c3)c(CNCCO)cc2Cl)cccc1-c1cccc(-c2cnc3cc(CNCCO)ccn3c2=O)c1C [Example 17, 5-((4-Chloro-2-(((2-hydroxyethyl)amino)methyl)-5-((3′-(8-(((2-hydroxyethyl)amino)methyl)-4-oxo-4H-pyrido[1,2-a]pyrimidin-3-yl)-2,2′-dimethyl-[1,1′-biphenyl]-3-yl)methoxy)phenoxy)methyl)nicotinonitrile] has an IC50 of 2 nM.
In the case of CN1CCNCc2ccc(-c3cccc(-c4cccc(-c5ccn6c(=O)c(CNC[C@@H]7CCC(=O)N7)cnc6c5)c4Cl)c3Cl)cc21 [Example 410, (S)-8-(2,2′-Dichloro-3′-(1-methyl-2,3,4,5-tetrahydro-1H-benzo[e][1,4]diazepin-8-yl)-[1,1′-biphenyl]-3-yl)-3-((((5-oxopyrrolidin-2-yl)methyl)amino)methyl)-4H-pyrido[1,2-a]pyrimidin-4-one], the IC50 is reported as 120 nM.
COc1nc(-c2cccc(-c3cccc(-c4ccn5c(=O)c(CNCCn6cnnc6)cnc5c4)c3Cl)c2Cl)ccc1CNC[C@@H]1CCC(=O)N1 [Example 216, 8-[2-Chloro-3-[2-chloro-3-[6-methoxy-5-[[[(2S)-5-oxopyrrolidin-2-yl]methylamino]methyl]-2-pyridyl]phenyl]phenyl]-3-[[2-(1,2,4-triazol-4-yl)ethylamino]methyl]pyrido[1,2-a]pyrimidin-4-one] showed an IC50 of 0.1 nM.
For Cc1c(COc2cc(OCc3cncc(C#N)c3)c(CN3CC[C@H](C(=O)O)C3)cc2Cl)cccc1-c1cccc(-c2ccc3c(c2)C(=O)N(C)CC(=O)N3CCN2CC[C@H](C(=O)O)C2)c1C [Example 30, (S)-1-(4-((3′-(1-(2-((S)-3-Carboxypyrrolidin-1-yl)ethyl)-4-methyl-2,5-dioxo-2,3,4,5-tetrahydro-1H-benzo[e][1,4]diazepin-7-yl)-2,2′-dimethyl-[1,1′-biphenyl]-3-yl)methoxy)-5-chloro-2-((5-cyanopyridin-3-yl)methoxy)benzyl)pyrrolidine-3-carboxylic acid], the IC50 was 0.3 nM.
COc1nc(-c2cccc(-c3cccc(-c4ccn5c(=O)c(CNC[C@@H]6CCC(=O)N6)cnc5c4)c3Cl)c2Cl)ccc1CN1CC[C@@H](O)C1 [Example 170, 8-(2,2′-Dichloro-3′-(5-(((R)-3-hydroxypyrrolidin-1-yl)methyl)-6-methoxypyridin-2-yl)-[1,1′-biphenyl]-3-yl)-3-(((((S)-5-oxopyrrolidin-2-yl)methyl)amino)methyl)-4H-pyrido[1,2-a]pyrimidin-4-one] was tested, and the IC50 was 0.3 nM.
COc1cc(-c2cccc(-c3cccc(-c4ccc(CNC[C@@H]5CCC(=O)N5)c(OC)n4)c3Cl)c2Cl)cc2c1CN(C[C@H](C)O)CC2 [Example 418, (S)-5-((((6-(2,2′-Dichloro-3′-(2-((S)-2-hydroxypropyl)-8-methoxy-1,2,3,4 tetrahydroisoquinolin-6-yl)-[1,1′-biphenyl]-3-yl)-2-methoxypyridin-3-yl)methyl)amino)methyl)pyrrolidin-2-one] gave an IC50 of 23 nM.
For COc1nc(-c2cccc(-c3cccc(-c4nnc5n4CCNC5)c3Cl)c2Cl)ccc1CNC[C@@H]1CCC(=O)N1 [Example 240, (S)-5-((((6-(2,2′-Dichloro-3′-(5,6,7,8-tetrahydro-[1,2,4]triazolo[4,3-a]pyrazin-3-yl)-[1,1′-biphenyl]-3-yl)-2-methoxypyridin-3-yl)methyl)amino)methyl)pyrrolidin-2-one], the IC50 was 350 nM.
Compound COc1nc(-c2cccc(-c3cccc(-c4ccn5c(=O)c(CN6CC[C@H](C(=O)O)C6)cnc5c4)c3Cl)c2Cl)ccc1CNC[C@@H]1CCC(=O)N1 [Example 94, (S)-1-((8-(2,2′-Dichloro-3′-(6-methoxy-5-(((((S)-5-oxopyrrolidin-2-yl)methyl)amino)methyl)pyridin-2-yl)-[1,1′-biphenyl]-3-yl)-4-oxo-4H-pyrido[1,2-a]pyrimidin-3-yl)methyl)pyrrolidine-3-carboxylic acid] has an IC50 of 0.3 nM.
For COc1nc(-c2cccc(-c3cccc(-c4ccn5c(=O)c(CNCC6(O)COC6)cnc5c4)c3Cl)c2Cl)ccc1CNC[C@@H]1CCC(=O)N1 [Example 243, (S)-8-(2,2′-dichloro-3′-(6-methoxy-5-((((5-oxopyrrolidin-2-yl)-methyl)-amino)-methyl)pyridin-2-yl)-[1,1′-biphenyl]-3-yl)-3-((((3-hydroxyoxetan-3-yl)methyl)-amino)-methyl)-4H-pyrido[1,2-a]-pyrimidin-4-one], the IC50 was 0.3 nM.
For COc1nc(-c2cccc(-c3cccc(-c4ccn5c(=O)c(CNCCN6CCCC6=O)cnc5c4)c3Cl)c2Cl)ccc1CNCCN1CCCC1=O [Example 321, 8-[2-Chloro-3-[2-chloro-3-[6-methoxy-5-[[2-(2-oxopyrrolidin-1-yl)ethylamino]methyl]-2-pyridyl]phenyl]phenyl]-3-[[2-(2-oxopyrrolidin-1-yl)ethylamino]methyl]pyrido[1,2-a]pyrimidin-4-one], the IC50 was 0.2 nM.
COc1nc(-c2cccc(-c3cccc(-c4ccc5nc(CNC[C@@H]6CCC(=O)N6)ncc5c4)c3Cl)c2Cl)ccc1CNC[C@@H]1CCC(=O)N1 [Example 422, (S)-5-((((6-(2,2′-Dichloro-3′-(2-(((((S)-5-oxopyrrolidin-2-yl)methyl)amino)methyl)quinazolin-6-yl)-[1,1′-biphenyl]-3-yl)-2-methoxypyridin-3-yl)methyl)amino)methyl)pyrrolidin-2-one] gave an IC50 of 4.1 nM.
Work on COc1nc(-c2cccc(-c3cccc(-c4ccn5c(=O)c(CN6CC7(CNC(=O)C7)C6)cnc5c4)c3Cl)c2Cl)ccc1CN1CC2(CNC(=O)C2)C1 [Example 70, 8-(2,2′-Dichloro-3′-(6-methoxy-5-((7-oxo-2,6-diazaspiro[3.4]octan-2-yl)methyl)pyridin-2-yl)-[1,1′-biphenyl]-3-yl)-3-((7-oxo-2,6-diazaspiro[3.4]octan-2-yl)methyl)-4H-pyrido[1,2-a]pyrimidin-4-one] yielded an IC50 of 7.1 nM.
Compound COc1nc(-c2cccc(-c3cccc(-c4ccn5c(=O)c(CNCCCO)cnc5c4)c3Cl)c2Cl)ccc1CNC[C@@H]1CCC(=O)N1 [Example 316, (S)-8-(2,2′-Dichloro-3′-(6-methoxy-5-((((5-oxopyrrolidin-2-yl)methyl)-amino)methyl)-pyridin-2-yl)-[1,1′-biphenyl]-3-yl)-3-(((3-hydroxypropyl)amino)methyl)-4H-pyrido[1,2-a]pyrimidin-4-one] has an IC50 of 0.3 nM.
Compound COc1nc(-c2cccc(-c3cccc(-c4ccn5c(=O)c(CN[C@H]6C[C@](C)(O)C6)cnc5c4)c3Cl)c2Cl)ccc1CNC[C@@H]1CCC(=O)N1 [Example 143, 8-(2,2′-Dichloro-3′-(6-methoxy-5-(((((S)-5-oxopyrrolidin-2-yl)methyl)amino)methyl)pyridin-2-yl)-[1,1′-biphenyl]-3-yl)-3-((((1r,3r)-3-hydroxy-3-methylcyclobutyl)amino)methyl)-4H-pyrido[1,2-a]pyrimidin-4-one] has an IC50 of 1.8 nM.
COc1nc(-c2cccc(-c3cccc(-c4ccn5c(=O)c(CN[C@H]6C[C@](C)(O)C6)c(C)nc5c4)c3Cl)c2Cl)ccc1CNC[C@@H]1CCC(=O)N1 [Example 204, 8-(2,2′-Dichloro-3′-(6-methoxy-5-(((((S)-5-oxopyrrolidin-2-yl)methyl)amino)methyl)pyridin-2-yl)-[1,1′-biphenyl]-3-yl)-3-((((1r,3r)-3-hydroxy-3-methylcyclobutyl)amino)methyl)-2-methyl-4H-pyrido[1,2-a]pyrimidin-4-one] showed an IC50 of 0.1 nM.
Compound O=C1CC[C@@H](CNC2COc3nc(-c4cccc(-c5cccc(-c6ccc7c(n6)OCC7NC[C@@H]6CCC(=O)N6)c5Cl)c4Cl)ccc32)N1 (stereo partly drawn) [Example 44, (5S,5'S)-5,5′-((((2,2′-Dichloro-[1,1′-biphenyl]-3,3′-diyl)bis(2,3-dihydrofuro[2,3-b]pyridine-6,3-diyl))bis(azanediyl))bis(methylene))bis(pyrrolidin-2-one)] has an IC50 of 550 nM.
